Data reported in PubChem BioAssay (NCI).
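Step 1: Grow cells in 96-well plates. Step 2: Expose to compound for 48 hours at 5 concentrations. Step 3: Interpolate endpoints linearly; if unreached, use highest concentration. TGI: concentration producing complete growth inhibition.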

What was measured:
Assay in all cases: NCI tumour cell line growth inhibition, 48 h
SK-OV-3 ovarian = system: SK-OV-3 ovarian
SK-MEL-2 melanoma = system: SK-MEL-2 melanoma
HOP-62 NSCLC = system: HOP-62 NSCLC
A498 renal = system: A498 renal
SW-620 colon = system: SW-620 colon
HCT-15 colon = system: HCT-15 colon
IGROV1 ovarian = system: IGROV1 ovarian
U251 CNS = system: U251 CNS
COLO 205 colon = system: COLO 205 colon

| Compound | TGI (SK-OV-3 ovarian) [µM] | TGI (SK-MEL-2 melanoma) [µM] | TGI (HOP-62 NSCLC) [µM] | TGI (A498 renal) [µM] | TGI (SW-620 colon) [µM] | TGI (HCT-15 colon) [µM] | TGI (IGROV1 ovarian) [µM] | TGI (U251 CNS) [µM] | TGI (COLO 205 colon) [µM] |
| --- | --- | --- | --- | --- | --- | --- | --- | --- | --- |
| CC1=CC=NN2C(=O)[C@H](C)C2C1 (stereo not given in full) | > 100 | > 100 | > 100 | > 100 | > 100 | > 100 | > 100 | > 100 | > 100 |
| Cc1ccc(S(=O)(=O)N/N=C(\CCN2CCCC2)CC(c2ccccc2)c2c(O)c3ccccc3oc2=O)cc1 (stereo not given) | > 100 | > 100 | > 100 | > 100 | > 100 | > 100 | > 100 | > 100 | – |
| O=C(O)c1ccc(S(=O)(=O)c2ccccc2)c([N+](=O)[O-])c1 | > 100 | > 100 | > 100 | > 100 | > 100 | > 100 | > 100 | > 100 | > 100 |
| C/C(=N\N=C(N)N)C(CN(CC(C)C)CC(C)C)C(=O)Nc1ccc(C)cc1C (stereo not given) | > 100 | > 100 | > 100 | > 100 | > 100 | > 100 | > 100 | > 100 | > 100 |
| CCNc1nnc(CSc2nc(-c3ccccc3)c(-c3ccccc3)[nH]2)s1 | 41.7 | 41.9 | 35.7 | – | 44.1 | 43.8 | – | 26.9 | 51.2 |
| O=C(Cc1nc2ccccc2s1)C(=O)Nc1ccc(Cl)cc1 | > 100 | > 100 | > 100 | > 100 | > 100 | > 100 | > 100 | > 100 | > 100 |
| O=C(O)c1ccc(NC(=O)C2C(=O)C(=O)N(c3ccc(C(=O)O)cc3)C2=O)cc1 (stereo not given) | > 100 | > 100 | > 100 | > 100 | > 100 | > 100 | > 100 | > 100 | > 100 |
| C/C(=N\NC(=S)N1CCCCCC1)c1nccnc1C | – | 50.2 | > 100 | 12.9 | > 100 | > 100 | – | > 100 | – |
| O=C1C2C(C(=O)N1O)N(Cc1ccccc1)C(=O)N2Cc1ccccc1 (stereo not given) | > 100 | – | > 100 | > 100 | > 100 | > 100 | > 100 | > 100 | > 100 |
| CC(=O)N1CCC2(C=Nc3ccccc32)CC1 | > 100 | > 100 | > 100 | > 100 | > 100 | > 100 | > 100 | > 100 | > 100 |
| COc1cccc(N2C(=O)c3c(c4[nH]c5ccccc5c4c4ccc(C(C)(C)C)cc34)C2=O)c1 | > 100 | > 100 | > 100 | > 100 | > 100 | > 100 | > 100 | > 100 | > 100 |
| CCOC(=N)CC(=O)Nc1ccc(Cl)cc1 | > 100 | > 100 | > 100 | > 100 | > 100 | > 100 | > 100 | > 100 | > 100 |
| CN(C)c1ccc(-c2cc(=O)c3ccccc3[nH]2)cc1 | – | – | > 100 | – | > 100 | > 100 | > 100 | > 100 | > 100 |
| C/C(CN1C(=O)c2ccccc2C1=O)=N\NS(=O)(=O)c1cccc([N+](=O)[O-])c1 | > 100 | > 100 | > 100 | > 100 | > 100 | > 100 | > 100 | > 100 | > 100 |
| CN/N=C(/Cc1occc(=O)c1O)C(=O)Nc1ccc(C)c(C)c1 | > 100 | > 100 | > 100 | > 100 | > 100 | > 100 | > 100 | > 100 | > 100 |
| CC(C)C(C(=O)O)N(CC1(O)OCC(O)C(O)C1O)N=O (stereo not given) | > 100 | > 100 | > 100 | > 100 | > 100 | – | > 100 | > 100 | > 100 |
| COC(=O)c1c[nH]cc1CCc1c[nH]cc1C(=O)OC | > 100 | > 100 | > 100 | > 100 | > 100 | > 100 | > 100 | > 100 | > 100 |
| O=P(c1ccccc1)(c1ccccc1)C1CC=C(c2ccccc2)C2(CCCC2)C1 (stereo not given) | > 100 | > 100 | – | > 100 | > 100 | > 100 | > 100 | > 100 | 56.7 |
